Data from the NIST ThermoML archive (doi:10.1021/je900503p).

Assays:
[1] = relative permittivity at zero frequency (dimensionless); xn = mol fraction of the nth substance listed; conditions: 101 kPa, Liquid, Dekameter
[2] = xn = mol fraction of the nth substance listed; conditions: 101 kPa, Liquid
[3] = refractive index (Na D-line) (dimensionless); xn = mol fraction of the nth substance listed; conditions: 101 kPa, Liquid

O=C1CCCO1 [γ-butyrolactone] + CCCCO
Conditions	mass density [kg/m3]	refractive index	relative permittivity at zero frequency
[1], 293.15 K, x1 = 0.1098	–	–	20.68
[1], 293.15 K, x1 = 0.2154	–	–	22.37
[1], 293.15 K, x1 = 0.3009	–	–	23.98
[1], 293.15 K, x1 = 0.4127	–	–	26.17
[1], 293.15 K, x1 = 0.5088	–	–	28.44
[1], 293.15 K, x1 = 0.6124	–	–	31.29
[1], 293.15 K, x1 = 0.7001	–	–	33.79
[1], 293.15 K, x1 = 0.8133	–	–	37.12
[1], 293.15 K, x1 = 0.9078	–	–	40.02
[1], 298.15 K, x1 = 0.1098	–	–	19.61
[1], 298.15 K, x1 = 0.2154	–	–	21.23
[1], 298.15 K, x1 = 0.3009	–	–	22.55
[1], 298.15 K, x1 = 0.4127	–	–	24.92
[1], 298.15 K, x1 = 0.5088	–	–	27.23
[1], 298.15 K, x1 = 0.6124	–	–	29.79
[1], 298.15 K, x1 = 0.7001	–	–	32.21
[1], 298.15 K, x1 = 0.8133	–	–	36.01
[1], 298.15 K, x1 = 0.9078	–	–	39.13
[1], 303.15 K, x1 = 0.1098	–	–	18.57
[1], 303.15 K, x1 = 0.2154	–	–	19.99
[1], 303.15 K, x1 = 0.3009	–	–	21.61
[1], 303.15 K, x1 = 0.4127	–	–	23.88
[1], 303.15 K, x1 = 0.5088	–	–	26.16
[1], 303.15 K, x1 = 0.6124	–	–	28.82
[1], 303.15 K, x1 = 0.7001	–	–	31.34
[1], 303.15 K, x1 = 0.8133	–	–	35.03
[1], 303.15 K, x1 = 0.9078	–	–	38.46
[1], 313.15 K, x1 = 0.1098	–	–	16.65
[1], 313.15 K, x1 = 0.2154	–	–	18.16
[1], 313.15 K, x1 = 0.3009	–	–	19.99
[1], 313.15 K, x1 = 0.4127	–	–	22.01
[1], 313.15 K, x1 = 0.5088	–	–	24.43
[1], 313.15 K, x1 = 0.6124	–	–	26.76
[1], 313.15 K, x1 = 0.7001	–	–	29.25
[1], 313.15 K, x1 = 0.8133	–	–	33.05
[1], 313.15 K, x1 = 0.9078	–	–	36.56
[2], 293.15 K, x1 = 0.0786	831.12	–	–
[2], 293.15 K, x1 = 0.1555	852.82	–	–
[2], 293.15 K, x1 = 0.2466	879.28	–	–
[2], 293.15 K, x1 = 0.2901	892.18	–	–
[2], 293.15 K, x1 = 0.3664	915.23	–	–
[2], 293.15 K, x1 = 0.4332	935.89	–	–
[2], 293.15 K, x1 = 0.4988	956.54	–	–
[2], 293.15 K, x1 = 0.5616	976.71	–	–
[2], 293.15 K, x1 = 0.6336	1000.34	–	–
[2], 293.15 K, x1 = 0.7033	1023.73	–	–
[2], 293.15 K, x1 = 0.7956	1055.39	–	–
[2], 293.15 K, x1 = 0.8654	1080.09	–	–
[2], 293.15 K, x1 = 0.9334	1104.36	–	–
[2], 293.15 K, x1 = 0.9888	1124.69	–	–
[2], 298.15 K, x1 = 0.0786	827.22	–	–
[2], 298.15 K, x1 = 0.1555	848.94	–	–
[2], 298.15 K, x1 = 0.2466	875.32	–	–
[2], 298.15 K, x1 = 0.2901	888.19	–	–
[2], 298.15 K, x1 = 0.3664	911.2	–	–
[2], 298.15 K, x1 = 0.4332	931.77	–	–
[2], 298.15 K, x1 = 0.4988	952.35	–	–
[2], 298.15 K, x1 = 0.5616	972.46	–	–
[2], 298.15 K, x1 = 0.6336	996.03	–	–
[2], 298.15 K, x1 = 0.7033	1019.35	–	–
[2], 298.15 K, x1 = 0.7956	1050.92	–	–
[2], 298.15 K, x1 = 0.8654	1075.34	–	–
[2], 298.15 K, x1 = 0.9334	1099.62	–	–
[2], 298.15 K, x1 = 0.9888	1119.77	–	–
[2], 303.15 K, x1 = 0.0786	823.57	–	–
[2], 303.15 K, x1 = 0.1555	845.28	–	–
[2], 303.15 K, x1 = 0.2466	871.63	–	–
[2], 303.15 K, x1 = 0.2901	884.43	–	–
[2], 303.15 K, x1 = 0.3664	907.36	–	–
[2], 303.15 K, x1 = 0.4332	927.87	–	–
[2], 303.15 K, x1 = 0.4988	948.38	–	–
[2], 303.15 K, x1 = 0.5616	968.43	–	–
[2], 303.15 K, x1 = 0.6336	991.92	–	–
[2], 303.15 K, x1 = 0.7033	1015.09	–	–
[2], 303.15 K, x1 = 0.7956	1046.55	–	–
[2], 303.15 K, x1 = 0.8654	1070.81	–	–
[2], 303.15 K, x1 = 0.9334	1094.88	–	–
[2], 303.15 K, x1 = 0.9888	1114.92	–	–
[2], 313.15 K, x1 = 0.0786	816.82	–	–
[2], 313.15 K, x1 = 0.1555	839.3	–	–
[2], 313.15 K, x1 = 0.2466	866.62	–	–
[2], 313.15 K, x1 = 0.2901	879.94	–	–
[2], 313.15 K, x1 = 0.3664	903.64	–	–
[2], 313.15 K, x1 = 0.4332	924.87	–	–
[2], 313.15 K, x1 = 0.4988	946.17	–	–
[2], 313.15 K, x1 = 0.5616	966.89	–	–
[2], 313.15 K, x1 = 0.6336	991.1	–	–
[2], 313.15 K, x1 = 0.7033	1015.08	–	–
[2], 313.15 K, x1 = 0.7956	1047.44	–	–
[2], 313.15 K, x1 = 0.8654	1072.54	–	–
[2], 313.15 K, x1 = 0.9334	1097.32	–	–
[2], 313.15 K, x1 = 0.9888	1118.1	–	–
[3], 293.15 K, x1 = 0.1098	–	1.4026	–
[3], 293.15 K, x1 = 0.2154	–	1.4063	–
[3], 293.15 K, x1 = 0.3009	–	1.4096	–
[3], 293.15 K, x1 = 0.4127	–	1.4136	–
[3], 293.15 K, x1 = 0.5088	–	1.4172	–
[3], 293.15 K, x1 = 0.6124	–	1.4213	–
[3], 293.15 K, x1 = 0.7001	–	1.4247	–
[3], 293.15 K, x1 = 0.8133	–	1.4294	–
[3], 293.15 K, x1 = 0.9078	–	1.4332	–
[3], 298.15 K, x1 = 0.1098	–	1.4014	–
[3], 298.15 K, x1 = 0.2154	–	1.4051	–
[3], 298.15 K, x1 = 0.3009	–	1.4083	–
[3], 298.15 K, x1 = 0.4127	–	1.4124	–
[3], 298.15 K, x1 = 0.5088	–	1.416	–
[3], 298.15 K, x1 = 0.6124	–	1.42	–
[3], 298.15 K, x1 = 0.7001	–	1.4234	–
[3], 298.15 K, x1 = 0.8133	–	1.4279	–
[3], 298.15 K, x1 = 0.9078	–	1.4316	–
[3], 303.15 K, x1 = 0.1098	–	1.4	–
[3], 303.15 K, x1 = 0.2154	–	1.4038	–
[3], 303.15 K, x1 = 0.3009	–	1.407	–
[3], 303.15 K, x1 = 0.4127	–	1.4111	–
[3], 303.15 K, x1 = 0.5088	–	1.4147	–
[3], 303.15 K, x1 = 0.6124	–	1.4186	–
[3], 303.15 K, x1 = 0.7001	–	1.4219	–
[3], 303.15 K, x1 = 0.8133	–	1.4263	–
[3], 303.15 K, x1 = 0.9078	–	1.43	–
[3], 313.15 K, x1 = 0.1098	–	1.3973	–
[3], 313.15 K, x1 = 0.2154	–	1.4013	–
[3], 313.15 K, x1 = 0.3009	–	1.4044	–
[3], 313.15 K, x1 = 0.4127	–	1.4085	–
[3], 313.15 K, x1 = 0.5088	–	1.4121	–
[3], 313.15 K, x1 = 0.6124	–	1.4158	–
[3], 313.15 K, x1 = 0.7001	–	1.4192	–
[3], 313.15 K, x1 = 0.8133	–	1.4232	–
[3], 313.15 K, x1 = 0.9078	–	1.4267	–
